From PMC11714206, “Massively Parallel Screening of Toll/Interleukin‐1 Receptor (TIR)‐Derived Peptides Reveals Multiple Toll‐Like Receptors (TLRs)‐Targeting Immunomodulatory Peptides” (Advanced Science, 2024)

Target: T1, MAL^TIR (Homo sapiens, UniProt P58753)
T1 construct: MAL (residues 79–221); 6xHis; made in house; host or cells: E. coli BL21 (DE3)
Test: T‐Surf phage library (P8 and P3) selection against MAL^TIR, four rounds, NGS read counts
Assay type: binding
Conditions: for P3_MAL Rank (after) / P3_MAL Rank (before): P3 library; for P8_MAL Rank (after) / P8_MAL Rank (before): P8 library; for Population: P8_MAL pool: P8 T-Surf phage library, 4th round of selection against MAL TIR, share of NGS reads
Experimental: T‐Surf libraries were screened against the immobilized TIR domains of two major human TLR adaptor proteins, MAL^TIR and MyD88^TIR, allowing cross‐species selection of TIR‐binding motifs with 190 946 TIR‐derived peptides in a single binding assay (Scheme 1). Enriched phage pools from the fourth round of selection were analyzed using NGS after barcoding the peptide‐coding regions of the phage pools.
Phage display screening was performed by coating two wells of a 96‐well plate (Maxisorp, Thermo Fisher Scientific) with 100 µL of 5 µg mL^−1 TIR domains overnight; then, the coated wells were blocked with 200 µL of blocking buffer (0.2% BSA in PBS) and set aside for 1 h at 4 °C with gentle shaking. Next, 100 µL of the phage library was added to the wells and incubated for 1 h at room temperature (RT; 20 – 22 °C) with gentle shaking. The plate was washed four times with PBS containing 0.5% Tween‐20; the bound phages were eluted by adding 100 µL of 100 mM HCl to each well. The elute was neutralized with 10 µL of 1.0 M Tris‐HCl (pH 11.0). E. coli TG1 cells were grown to the log phase (A600 = ≈0.6), and 1 mL of the culture was incubated with 100 µL of the eluted phages for 30 min at 37 °C, with shaking at 200 rpm. Next, 1 µL of M13KO7 helper phages was added, followed by incubation for 45 min at 37 °C, with shaking. Subsequently, the cells were transferred to 25 mL of 2× yeast extract tryptone/carbenicillin/kanamycin medium and incubated overnight at 37 °C with shaking at 200 rpm. The amplified phages were precipitated with 20% PEG‐8000/2.5 M NaCl to be used for the next round of selection.
The naïve T‐Surf libraries in P8 and P3 and the enriched phage pools after four rounds were barcoded for NGS as previously described.^[ [59] ^] Briefly, 5 µL of the phage pool was used as a template for 20 cycles of a 50 µL PCR reaction using […] each of forward and reverse barcoded primers and PrimeSTAR Max DNA Polymerase. The PCR products were purified using Expin Gel SV (GeneAll). The NGS samples were quantified using qPCR, following the qPCR Quantification Protocol Guide (KAPA Library Quantification kits for Illumina Sequencing Platform), and qualified using the TapeStation High Sensitivity D1000 ScreenTape (Agilent Technologies). The indexed libraries were further sequenced by Macrogen (Seoul, Republic of Korea) using the NovaSeq platform (Illumina) with 100 bp paired‐end reads. The reads were demultiplexed by barcodes and filtered for an average Phred quality score of at least 30, followed by trimming the flanking consensus sequences using Cutadapt (version 2.3). Peptide sequence populations were analyzed according to the read counts.

[1] = P3_MAL: rank by count after grouping
[2] = P3_MAL: rank by count before grouping
[3] = 4R selection against MAL, rank after grouping
[4] = 4R selection against MAL, rank before grouping
[5] = selection against MAL, rank by count after grouping
[6] = selection against MAL, rank by count before grouping
[7] = selection against MAL TIR, rank by count after grouping
[8] = selection against MAL TIR, rank by count before grouping
[9] = P8_MAL: rank by count after grouping
[10] = P8_MAL: rank by count before grouping
[11] = selection against MAL, rank after grouping
[12] = selection against MAL, rank before grouping

T1 sequence (P58753 79-221): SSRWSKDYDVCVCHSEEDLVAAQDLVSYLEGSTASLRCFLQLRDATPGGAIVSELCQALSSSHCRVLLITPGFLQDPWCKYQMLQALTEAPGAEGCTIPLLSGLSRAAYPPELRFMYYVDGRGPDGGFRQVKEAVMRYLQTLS

Sequence: DWFLSHLRHHLQAKDH
- Rank (after) [1]: 183
- Rank (before) [2]: 779

Sequence: FLSHLHRYLVQRGV
- P3_MAL Rank (after) [3]: 601
- P3_MAL Rank (before) [4]: 1134

Sequence: SSLREGLLRLQELSKK
- P3_MAL Rank (after) [5]: 713
- P3_MAL Rank (before) [6]: 3205

Sequence: RSFVASLFQALANKGI
- P8_MAL Rank (after) [7]: 240
- P8_MAL Rank (before) [8]: 2178

Sequence: AFLCPQLKSVLGNPTI
- Rank (after) [9]: 133
- Rank (before) [10]: 1753

Sequence: WFYERLVGLIMRDTKV
- Rank (after) [9]: 129
- Rank (before) [10]: 1172

Sequence: YAFTGHQHNYMVQRGV
- Rank (after) [1]: 420
- Rank (before) [2]: 1447

Sequence: WFYERFVSQIPRDTNL
- P8_MAL Rank (after) [11]: 550
- P8_MAL Rank (before) [12]: 1151

Sequence: AFFWEQLKSVLGNPTM
- Population: 0.00371%

Sequence: VRHTFAGYLCVALNRL
- Rank (after) [1]: 431
- Rank (before) [2]: 1700

Sequence: YFLHLLLFSRPETEYN
- P8_MAL Rank (after) [11]: 552
- P8_MAL Rank (before) [12]: 1509

Sequence: NLWKLWTKPGGVRDDR
- P3_MAL Rank (after) [3]: 618
- P3_MAL Rank (before) [4]: 3319

Sequence: MSQRYQGLKNRGIFTF
- P3_MAL Rank (after) [3]: 663
- P3_MAL Rank (before) [4]: 2959

Sequence: EWILDTEARIWGWRQA
- Rank (after) [1]: 452
- Rank (before) [2]: 1992

Sequence: YFLHFLLVSRAEAEFI
- P8_MAL Rank (after) [11]: 565
- P8_MAL Rank (before) [12]: 1499

Sequence: RLLKWKEALQQVHSWV
- Rank (after) [1]: 148
- Rank (before) [2]: 2470

Sequence: ESILNQRRPSSQSIAN
- P3_MAL Rank (after) [3]: 595
- P3_MAL Rank (before) [4]: 2071

Sequence: WFLFTVRSAIYAMDQVADT
- Rank (after) [9]: 459
- Rank (before) [10]: 1324

Sequence: AYAYSRLVLLPLLELS
- Rank (after) [9]: 472
- Rank (before) [10]: 1943

Sequence: YAFTGHLHQFHSWV
- Rank (after) [1]: 480
- Rank (before) [2]: 1431

Sequence: AFLYTFLINLTHPNNF
- Population: 0.00463%

Sequence: AFFCAQLKSVMGNPTI
- P8_MAL Rank (after) [3]: 675
- P8_MAL Rank (before) [4]: 1585

Sequence: PNLRTTVLKYLIRTKT
- Rank (after) [1]: 446
- Rank (before) [2]: 2749

Sequence: KWFWDKLIYALSRNPH
- P8_MAL Rank (after) [7]: 231
- P8_MAL Rank (before) [8]: 1067

Sequence: RNFVAYLFQALANTSI
- P8_MAL Rank (after) [3]: 585
- P8_MAL Rank (before) [4]: 2212

Sequence: KLQECRDTLRKIADFF
- P3_MAL Rank (after) [11]: 494
- P3_MAL Rank (before) [12]: 3627

Sequence: AFFCEQLRTVIGKPTI
- Rank (after) [9]: 414
- Rank (before) [10]: 1587

Sequence: NGHESELIKEIVVTIV
- P3_MAL Rank (after) [3]: 647
- P3_MAL Rank (before) [4]: 3257

Sequence: PNLRTKVLHHLMRTKP
- Rank (after) [1]: 405
- Rank (before) [2]: 2706

Sequence: WFYEPLLSMLLRATKV
- P8_MAL Rank (after) [5]: 706
- P8_MAL Rank (before) [6]: 1296

Sequence: YAFTGYLHRYVVQRGV
- P3_MAL Rank (after) [11]: 519
- P3_MAL Rank (before) [12]: 1355

Sequence: ALLNNFLIKLTHPSII
- Rank (after) [9]: 448
- Rank (before) [10]: 1959

Sequence: SFYEPQVKMVLRNTTM
- P8_MAL Rank (after) [7]: 282
- P8_MAL Rank (before) [8]: 1446

Sequence: AFLYPFLINLTHPTIP
- P8_MAL Rank (after) [11]: 512
- P8_MAL Rank (before) [12]: 1816

Sequence: AFLYSLLISLPETANI
- P8_MAL Rank (after) [11]: 543
- P8_MAL Rank (before) [12]: 1810

Sequence: AFLYTLLNNVLRNPTI
- P8_MAL Rank (after) [11]: 556
- P8_MAL Rank (before) [12]: 1888
